Measured values: US7951775B2, “Methods and pharmaceutical compositions for GnRH-I and GnRH-II modulation of T-cell activity, adhesion, migration and extravasation” (priority 2001, dated 2011)
Where a SMILES comes first, the peptide text is derived from it. [ ]: non-standard residue; d: D form. dPhe(4-Cl) = N[C@H](Cc1ccc(Cl)cc1)C(=O)O; d2Nal = N[C@H](Cc1ccc2ccccc2c1)C(=O)O; dCit = NC(=O)NCCC[C@@H](N)C(=O)O; d3Pal = N[C@H](Cc1cccnc1)C(=O)O

How the values were obtained:
normal human T-cells [1] = assay: Double immunofluorescence staining (FACS) for surface 67 kDa laminin receptor and TCR; assay type: cell-based
Method: Normal human T-cells, isolated from fresh peripheral blood lymphocytes, or EL-4 T-lymphocyte cells were subjected to double immunofluorescence staining, using a mouse monoclonal anti-67 kDa LR antibody (100 μl of 1:20 dilution per 1×10^6 cells/tube; 30 minutes on ice), or normal mouse sera for control. The cells were then stained with an FITC-conjugated goat anti-mouse IgG (100 μl of 1:100 dilution), and PE-conjugated mouse anti-human TCR αβ mAb (2 μl of stock). Cells that were stained only with the second and third antibodies served as additional negative controls. Fluorescence profiles were recorded in a FACSORT. To determine whether GnRH-II and GnRH-I trigger not only the gene transcription but also the surface expression of the 67 kDa LR, normal human T-cells were treated with either GnRH-II or GnRH-I for 18-66 h and subjected to double immunofluorescence staining using a monoclonal antibody (mAb) that is specific for the 67 kDa LR, and a phycoerythrin (PE)-conjugated anti-TCRαβ mAb (to confirm the T-cell origin of the cells). FIGS. 2A-2C show the staining for the untreated, GnRH-I treated and GnRH-II treated T-cells, respectively. The FACS profiles can be interpreted by division according to four categories: 1. Negative staining for both mAbs (double negative, lower left quadrant); 2. Single positive staining only with the anti-LR mAb (lower right quadrant), 3. Single positive staining only with the anti-TCR mAb (upper left quadrant); 4. Double positive staining with both mAbs (upper right quadrant). […] In different experiments, each using freshly isolated T-cells from a different human donor, both GnRH II and GnRH I repeatedly elevated the laminin receptor expression level, but the magnitude of elevation varied within a range of 6-40%. Such variations between T-cell populations originating from different donors are often observed in respect to various T-cell features and functions.

normal human T-cells [2] = assay: Quantitative RT-PCR of 67 kDa laminin receptor mRNA in T-cells; assay type: cell-based

Structure (SMILES): CC(=O)N[C@H](Cc1ccc2ccccc2c1)C(=O)N[C@H](Cc1ccc(Cl)cc1)C(=O)N[C@H](Cc1cccnc1)C(=O)N[C@@H](CO)C(=O)N[C@@H](Cc1ccc(O)cc1)C(=O)N[C@H](CCCNC(N)=O)C(=O)N[C@@H](CC(C)C)C(=O)N[C@@H](CCCNC(=N)N)C(=O)N1CCC[C@H]1C(=O)N[C@H](C)C(N)=O [Cetrorelix, reference compound] (Ac-[d2Nal][dPhe(4-Cl)][d3Pal]SY[dCit]LRP[dA]-NH2)
- block of GnRH-I induced upregulation in surface expression of the 67 kDa LR (normal human T-cells [1]; 100 nM Cetrorelix + 10 nM GnRH-I (FIG. 2E)): blocked
- block of GnRH-II effect on surface expression of the 67 kDa LR (normal human T-cells [1]; 100 nM Cetrorelix + 10 nM GnRH-II (FIG. 2E)): did not block
- block of GnRH-I induced upregulation in gene expression of the 67 kDa LR (normal human T-cells [2]; 100 nM Cetrorelix + 10 nM GnRH-I (FIG. 2D)): blocked
- block of GnRH-II effect on gene expression of the 67 kDa LR (normal human T-cells [2]; 100 nM Cetrorelix + 10 nM GnRH-II (FIG. 2D)): did not block
